Activity calls are given as the source filed them.
Columns and labels:
Tubulin = experiment: Inhibition of tubulin (unknown origin) polymerization assessed as decrease in fluorescence intensity in presence of GTP by fluorescence microplate reader; format: protein-complex assay, Homo sapiens
Tubulin (Homo sapiens) [1] = biological target: T1, Tubulin (Homo sapiens) (UniProt P68371+Q9H4B7+P0DPH7+P68366+Q13509+Q71U36+P04350+Q3ZCM7+P07437+P68363+Q9BQE3+Q6PEY2+Q13885+Q9BVA1+Q9BUF5); experiment: Disruption of microtubule network in human MGC-803 cells assessed as irregular cellular morphology at 0.25 to 2.0 nmol/L incubated for 24 hrs by DAPI staining based fluorescence microscopic analysis; format: cell-based; details: dose 0.25-2 nmol/L
MGC-803 [2] = experiment: Induction of cell cycle arrest in human MGC-803 cells assessed as downregulation of Cdc25c level measured after 48 hrs by Western blot analysis; format: functional, cell-based; details: dose 0.25-2 nmol/L
HGC-27 [3] = experiment: Induction of apoptosis in human HGC-27 cells assessed as increase in cleaved Caspase-7 expression at 0.25 to 2.0 nmol/L incubated for 48 hrs by Western blotting analysis; format: functional, cell-based; details: dose 0.25-2 nmol/L
HGC-27 [4] = experiment: Anti-migratory activity against human HGC-27 cells assessed as reduction in wound healing area measured after 24 hrs by wound healing assay; format: functional, cell-based; details: dose 0.5-1 nmol/L
MGC-803 [5] = experiment: Antitumor activity against human MGC-803 cells xenografted in female BALB/c-nu nude mouse assessed as reduction in Ki67 expression in tumor at 5 mg/kg, po administrated […] for 11 times and measured after 21 days by immunohistochemical analysis; format: functional, organism-based; details: time 21.0 day
HGC-27 [6] = experiment: Inhibition of colony formation in human HGC-27 cells incubated for 7 days by crystal violet staining based colony formation assay; format: functional, cell-based; details: dose 0.1-0.5 nmol/L, time 7.0 day
[7] = biological target: T2, Tubulin beta (Homo sapiens) (UniProt P68371+Q9H4B7+Q13509+P04350+Q3ZCM7+P07437+Q13885+Q9BVA1+Q9BUF5+A6NNZ2); experiment: Competitive binding affinity to beta-tubulin colchicine binding site in human MGC-803 cells assessed as reduction in EBI-beat tubulin adduct to beta-tubulin ratio preincubated for 2 hrs followed by EBI addition and measured after 2 hrs by Western blotting analysis; format: cell-based; details: dose 0.1-1 µmol/L, time 4.0 hrs
MGC-803 [8] = experiment: Induction of apoptosis in human MGC-803 cells assessed as cell contraction at 0.25 to 2.0 nmol/L incubated for 48 hrs by bright field microscopic analysis; format: functional, cell-based; details: dose 0.25-2 nmol/L
Tubulin (Homo sapiens) [9] = biological target: T1, Tubulin (Homo sapiens); experiment: Disruption of microtubule network in human MGC-803 cells assessed as disruption of mitosis at 0.25 to 2.0 nmol/L incubated for 24 hrs by DAPI staining based fluorescence microscopic analysis; format: cell-based; details: dose 0.25-2 nmol/L
[10] = Cytotoxicity against human GES1 cells assessed as inhibition of cell proliferation incubated for 48 hrs by MTT assay; format: toxicity, cell-based
HGC-27 [11] = experiment: Induction of cell cycle arrest in human HGC-27 cells assessed as accumulation of cells at G2/M phase incubated for 24 hrs by RNase A/propidium iodide staining based flow cytometric analysis; format: functional; details: dose 0.25-2 nmol/L
HGC-27 [12] = experiment: Induction of apoptosis in human HGC-27 cells assessed as appearance of ruptured cells at 0.25 to 2.0 nmol/L incubated for 48 hrs by bright field microscopic analysis; format: functional, cell-based; details: dose 0.25-2 nmol/L
MGC-803 [13] = experiment: Antiproliferative activity against human MGC-803 cells assessed as survival rate at 2 nmol/L measured after 6 hrs by MTT assay relative to control; format: functional; details: read-out: Survival
HGC-27 [14] = experiment: Antiproliferative activity against human HGC-27 cells assessed as reduction in cell viability incubated for 48 hrs by MTT assay; format: functional, cell-based; details: dose 0.25-10 nmol/L
HUVEC [15] = experiment: Anti-angiogenesis activity in HUVEC cells assessed as reduction in cell viability incubated from 12 to 48 hrs by MTT assay; format: functional, cell-based; details: Homo sapiens, dose < 2.0 nmol/L, time 12-48 hrs
HGC-27 [16] = experiment: Antiproliferative activity against human HGC-27 cells assessed as survival rate at 2 nmol/L measured after 48 hrs by MTT assay relative to control; format: functional; details: read-out: Survival
MGC-803 [17] = experiment: Antiproliferative activity against human MGC-803 cells assessed as cell viability at 1 to 2 nmol/L incubated for 48 hrs by MTT assay (reference value: 92 %); format: functional; details: dose 1-2 nmol/L, at 1 to 2 nM
HGC-27 [18] = experiment: Induction of apoptosis in human HGC-27 cells assessed as early apoptotic cells at 1.0 nmol/L incubated for 48 hrs by Annexin V-FITC/propidium iodide staining based flow cytometry analysis (reference value: 2.04 %); format: functional
MGC-803 [19] = experiment: Induction of apoptosis in human MGC-803 cells assessed as increase in cleaved PARP expression at 0.25 to 2.0 nmol/L incubated for 48 hrs by Western blotting analysis; format: functional, cell-based; details: dose 0.25-2 nmol/L
[20] = Toxicity in female BALB/c-nu nude mouse xenografted with human MGC-803 cells assessed as change in lung morphology at 5 mg/kg, po administrated every other day for 11 times and measured after 21 days by hematoxylin and eosin staining based analysis; format: organism-based; details: in vivo, 504 h, time 21 day
[21] = biological target: T2, Tubulin beta (Homo sapiens); experiment: Competitive binding affinity to beta-tubulin colchicine binding site in human HGC-27 cells assessed as reduction in EBI-beat tubulin adduct to beta-tubulin ratio preincubated for 2 hrs followed by EBI addition and measured after 2 hrs by Western blotting analysis; format: cell-based; details: dose 0.1-1 µmol/L, time 4.0 hrs
[22] = Toxicity in female BALB/c-nu nude mouse xenografted with human MGC-803 cells assessed as change in kidney morphology at 5 mg/kg, po administrated every other day for 11 times and measured after 21 days by hematoxylin and eosin staining based analysis; format: organism-based; details: in vivo, 504 h, time 21 day
MGC-803 [23] = experiment: Induction of cell cycle arrest in human MGC-803 cells assessed as downregulation of Cdc2 phosphorylation at Tyr15 residue measured after 48 hrs by Western blot analysis; format: functional, cell-based; details: dose 0.25-2 nmol/L
HGC-27 [24] = experiment: Induction of apoptosis in human HGC-27 cells assessed as increase in cleaved Caspase-9 expression at 0.25 to 2.0 nmol/L incubated for 48 hrs by Western blotting analysis; format: functional, cell-based; details: dose 0.25-2 nmol/L
MGC-803 [25] = experiment: Induction of apoptosis in human MGC-803 cells assessed as late apoptotic cells at 1.0 nmol/L incubated for 48 hrs by Annexin V-FITC/propidium iodide staining based flow cytometry analysis (reference value: 2.22 %); format: functional
HUVEC [26] = experiment: Anti-angiogenesis activity in HUVEC cells assessed as effect on cell vitality at <= 1 nmol/L measured within 24 hrs; format: functional, cell-based; details: Homo sapiens
HGC-27 [27] = experiment: Induction of apoptosis in human HGC-27 cells assessed as increase in cleaved PARP expression at 0.25 to 2.0 nmol/L incubated for 48 hrs by Western blotting analysis; format: functional, cell-based; details: dose 0.25-2 nmol/L
MGC-803 [28] = experiment: Induction of apoptosis in human MGC-803 cells assessed as appearance of bright cells at 0.25 to 2.0 nmol/L incubated for 48 hrs by bright field microscopic analysis; format: functional, cell-based; details: dose 0.25-2 nmol/L
Tubulin (Homo sapiens) [29] = biological target: T1, Tubulin (Homo sapiens); experiment: Disruption of microtubule network in human MGC-803 cells assessed as reduction in filamentous microtubule structure formation at 0.25 to 2.0 nmol/L incubated for 24 hrs by DAPI staining based fluorescence microscopic analysis; format: cell-based; details: dose 0.25-2 nmol/L
MGC-803 [30] = experiment: Antiproliferative activity against human MGC-803 cells by MTT assay; format: functional, cell-based; details: dose 0.25-2 nmol/L
Tubulin (Homo sapiens) [31] = biological target: T1, Tubulin (Homo sapiens); experiment: Disruption of microtubule network in human HGC-27 cells assessed as reduction in filamentous microtubule structure formation at 0.25 to 2.0 nmol/L incubated for 24 hrs by DAPI staining based fluorescence microscopic analysis; format: cell-based; details: dose 0.25-2 nmol/L
MGC-803 [32] = experiment: Induction of apoptosis in human MGC-803 cells assessed as early apoptotic cells at 0.25 nmol/L incubated for 48 hrs by Annexin V-FITC/propidium iodide staining based flow cytometry analysis (reference value: 0.83 %); format: functional

CN(c1ccc2c(ccn2C)c1)c1nc(N2CCCC2)nc2sccc12
active: Activity (Tubulin (Homo sapiens) [1]) | Activity (MGC-803 [2]) Dose-dependent-effect | Activity (HGC-27 [3]) | Activity (HGC-27 [4]) Dose-dependent-effect | Activity (MGC-803 [5]) | inhibition (HGC-27 [6]) Dose-dependent-effect | Activity [7] Dose-dependent-effect | Activity (MGC-803 [8]) | Activity (Tubulin (Homo sapiens) [9]) | Activity (HGC-27 [11]) Dose-dependent-effect | Activity (HGC-27 [12]) | Activity (HGC-27 [14]) Dose-dependent-effect | Activity (HUVEC [15]) Dose-dependent-effect | Activity (MGC-803 [19]) | Activity [21] Dose-dependent-effect | Activity (MGC-803 [23]) Dose-dependent-effect | Activity (HGC-27 [24]) | Activity (HGC-27 [27]) | Activity (MGC-803 [28]) | Activity (Tubulin (Homo sapiens) [29]) | Activity (MGC-803 [30]) Dose-dependent-effect | Activity (Tubulin (Homo sapiens) [31])
2510 nM: IC50 (Tubulin)
Active; Minimal Impact Observed: Activity (HUVEC [26])
Non-toxic: Activity [20] | Activity [22]
3.78%: Activity (MGC-803 [25])
39%: Activity (MGC-803 [17])
48%: viability at 0.002 µM (HGC-27 [16])
1.28%: Activity (MGC-803 [32])
86%: viability at 0.002 µM (MGC-803 [13])
31.1 nM: IC50 at 48 h [10]
11.52%: Activity (HGC-27 [18])
